Test results as given in patent publication US20250213700A1, “COMPOUNDS, COMPOSITIONS, AND METHODS FOR CELL-SPECIFIC PHARMACOLOGY” (Duke University, priority 2022, published 2025).

Columns and labels:
[1] = test system: AMPAR; assay: acute striatal brain slice electrophysiology, AMPAR antagonism; assay type: cell-based, mouse
Protocol: Electrophysiology. Preparation of Brain slices: Mice (8-10 weeks) were injected AAV10 HaloTag™-dTomato to striatum or ventral tegmental area (VTA). After 3-5 weeks, mice were deeply anesthetized with isoflurane and euthanized by decapitation. Coronal brain slices ([…]) containing striatum or VTA were prepared by standard methods using a Vibratome (Leica, VT 1200S), in ice-cold high sucrose cutting solution containing (in mM) 220 sucrose, 3 KCl, 1.25 NaH2PO4, 25 NaHCO3, 12 MgSO4.7H2O, 10 glucose, and 0.2 CaCl2) bubbled with 95% O2 and 5% CO2. […]
Whole-cell patch-clamp recording: The brain slices or retinas were perfused with bubbled aCSF at 29-30° C. with a 2 ml/min flow rate. […] Series resistance was monitored using 5-10 mV hyperpolarizing step throughout the experiment, and cells were discarded if series resistance changed more than ˜15% during the experiment. […] Statistical significance was determined using Student's t or one-way or two-way ANOVA tests. eIPSCs or eEPSCs decay time constants were obtained by fitting a single-exponential function, I(t)=I exp(−t/T)+ISS, where I(t) is the amplitude of the current at time t and ISS is the steady-state current, I is instantaneous current subtracted from Iss, and t is the time constant of decay. […]

[2] = test system: D1-Cre mice with +HTP or ddHTP in left dorsal striatum; assay: open-field turning (locomotor) assay, unilateral delivery to dSPNs of dorsal striatum; assay type: in vivo, mouse; conditions: for open-field turning, +HTP mice / open-field turning, ddHTP mice: 10:1 mixture with Alexa488.1DART.2 infused into left dorsal striatum
Protocol: Mice: For behavioral experiments, mice strains included Drd1A-Cre (GENSAT EY262). For slice experiments, Drd1A-Cre were used. Mice were singly housed post-surgery, in a 12-hour reverse light cycle, with food and water provided ad libitum. Recombinant adeno-associated viral (rAAV) vectors.
Behavioral assays: Assays were performed at least 3 weeks after viral injection to allow for recombinant protein expression. Mice were acclimated to head-fixation for 3 consecutive days prior to behavioral experiments. Reagents were infused into the brain via the cranial cannula. Immediately following infusion, mice were placed into open-field chambers (27 cm×27 cm) in the dark, and behavior was recorded using infrared video.
These advances were combined in a mouse locomotor assay. AAV-DIO-^+HTPGPI or AAV-DIO-ddHTPGPI were expressed in the left dorsal striatum of D1-Cre mice, and implanted a unilateral cannula. Three weeks later, a baseline open-field behavior (saline infusion) was obtained; followed one week later by infusion of a 10:1 mixture of YM90K.1DART.2/Alexa488.1DART.2 (FIG. 3A). Mice were perfused for histology 24 hrs later, and quantitative measurement of the integrated Alexa capture over the dorsal striatum was performed. The magnitude of open-field turning vs dye capture (FIG. 3C) was then plotted A control was also performed as above using DART.1 and non-DART fluorescent dye (fluorogold) (FIG. 3B and FIG. 3D). Three points merit emphasis. […] Second, the data yielded a tight correlation between behavioral effects and histology; in particular the four animals with the weakest behavioral impact corresponded to those with little dye capture, providing an unbiased parameter with which to exclude these animals due to technical failure. Such a correlation was not seen with the original technology, despite efforts to estimate cannula patency with a non-DART fluorescent tracer. Third, in these behaving mice, YM90K.1DART.2 was substantially more efficacious than its predecessor, driving a 3-fold larger impact in a locomotor assay following unilateral delivery to dSPNs of the dorsal striatum (FIG. 3E and FIG. 3F). Experiments in acute striatal brain slice confirmed the performance boost afforded by DART.2. Low-dose, YM90K.1DART.2 produced rapid AMPAR antagonism on +HTP neurons, achieving half-block after only 5 min of a 0.3 µM dose. This represents a ˜10-fold acceleration in comparison to its predecessor, which required 15 min of a 1 µM dose to achieve a similar block. Neither reagent produced any measurable impact on −HTP or ddHTP neurons at these doses. However, only YM90K.1DART.2 offered kinetics fast enough for routine slice physiology experiments.

In the case of `COc1cc(CCCCl)ccc1CCOCCNC(=O)c1ccc(CNC(=O)CCOCCOCCOCCOCCOCCOCCOCCOCCOCCOCCOCCOCCOCCOCCOCCOCCOCCOCCOCCOCCOCCOCCOCCOCCOCCOCCOCCOCCOCCOCCOCCOCCOCCOCCOCCOCCn2cc(COCCOCCOCCOCCOCCOCCNC(=O)CCCn3c(=O)c(=O)[nH]c4cc([N+](=O)[O-])c(-n5ccnc5)cc43)nn2)cc1` [YM90K.1DART.2], the “acceleration in comparison to predecessor” value [1] is reported as about 10 fold, the “time to half-block of AMPAR” value ([1]; +HTP neurons, 0.3 µM dose) is reported as 5 min and the “open-field turning, +HTP mice” value [2] is reported as “a turning bias in +HTP mice was seen”. For the same compound, the “open-field turning, ddHTP mice” value [2] was “no turning bias”, the “open-field turning, +HTP mice” value ([2]; listed as YM90K.1^DART.2) was “turned in proportion to dye capture” and the “open-field turning, ddHTP mice” value ([2]; listed as YM90K.1^DART.2) was “little turning”. The “impact in locomotor assay / behavioral potency in comparison to predecessor” value ([2]; unilateral delivery to dSPNs of the dorsal striatum) was 3 fold.
